Among the data in patent US20120232062A1, “AZAINDAZOLES TO TREAT FLAVIVIRIDAE VIRUS INFECTION” (EIGER BIOPHARMACEUTICALS, INC., priority 2009, published 2012) are EC50 values, retold here.

Like-named read-outs stand apart in the source and are kept apart here. A value given as a limit tells only on which side of the number the result lay.

The assay relates to HCV genotype 1b. Put plainly: HCV 1b replicon luciferase assay. In kind it is cell-based. From the text:
A suitable 1b HCV RNA replicon assay uses the Huh7 cell line which contains an HCV 1b RNA replicon with a stable luciferase (LUC) reporter. This construct contains modifications that make the cell line more robust and provides stable LUC expression for antiviral screening. The LUC reporter is used as an indirect measure of HCV replication. The activity of the LUC reporter is directly proportional to HCV RNA levels and positive control antiviral compounds behave comparably using LUC endpoints. […]
Fresh growth medium is prepared just before use. The container used in the procedure is a 10 cm diameter culture dish. HCV replicon reporter cell lines are used. Prepare complete medium: add FBS and appropriate additives as described in “Culture Media”, below. Pre-warm the medium in a 37° C. thermostat water bath. Remove the dish from a 37° C. CO2 incubator. Check the cell name and complete medium and passage number marked on the dish. Aspirate the medium carefully and add 1 ml PBS to rinse the cells. Remove and discard the solution and add 1 ml of 0.25% Trypsin/0.02% EDTA. Rinse the cells with the added Trypsin/EDTA to ensure all the cells have been rinsed. Remove the Trypsin/EDTA with a vacuum pump and incubate at 37° C. for 3-5 minutes. Examine the cell morphology under an inverted microscope to confirm that a single cell suspension is clearly visible. Add 3 ml of complete medium to the dish and suspend the cell by gentle pipetting. Count the cell numbers with a hematometer. Adjust cell density to 100 k/ml by adding appropriate volume of the complete medium. Add 100 μl of cell suspension to each well of a 96-well white plate; the cell density is thus 10 k per well. Mark the plate with cell name, passage number, seeding density, date and the name of the operator. Place the 96-well assay plate in 37° C. 5% CO2 incubator for 24 hours.
Compounds are prepared or provided at 25 mM in 100% DMSO. This is the compound stock solution. The dilution procedure should be performed in a cell culture hood. Dispense the stock solution into the second column of a 96-well plate. Prepare 9-step (10 concentrations total), 5-fold serial dilutions by transferring 10 μA of the compound into the next well containing 40 μA of DMSO. Repeat for all compounds. Aspirate 2 μl of the above compound solution from each well and add into 198 μl complete media using a 12-channel pipetter to obtain the 10-fold concentration compound solution with 1% DMSO, mix well.
Remove the 96-well assay plate from the 37° C./5% CO2 incubator, examine the cell morphology under an inverted microscope. In a cell culture hood, add 10 μl of the 10× concentration compounds solution into each well on the 96-well assay plate. All compound's dose responses are done in duplicate. The starting final concentration of the compounds is 25 μM, and DMSO final concentration 0.1%. Mark the plate with compound code(s) and concentrations. Place the 96-well assay plate into CO2 incubator for 48 hours. Add 30 μl of Stead-Glo Luciferase System (Promega) reagent to each well and mix by gentle shaking on a plate shaker for 5 minutes to allow throughout cell lysis. Measure the luminescence with Envision (Perkin Elmer) with an integration time of 2 seconds. Record and analyze the data.
The cell culture media is DMEM complete: DMEM (Life Technologies #41965-039) supplemented with 10% FCS, 2 mM Glutamin (Life Technologies #25030-024), Penicillin (100 IU/ml)/Streptomycin (100 μg/ml) (Life Technologies #15140-114) and 1× nonessential amino acids (Life Technologies #11140-035). G418 (“Geneticin”, Life Technologies): concentrations are given as weight per volume of the original substance. Specific activity of a typical batch is ca. 700 μg/mg as stated by the manufacturer. […] Therefore each new batch of G418 should be tested individually e.g. in an electroporation experiment using different selection conditions (0.2-1 mg/ml).

Setting [1] is: Hepatitis C virus, Huh-7, 48 h, Table 1, Huh7 HCV 1b replicon, luciferase reporter, 48 hours, read-out: 1b EC50.
The mark [2] stands for this setting: Table 1, Huh7 HCV 1b replicon, luciferase reporter, 48 hours, read-out: 1b EC50.
Where [3] appears, read: Hepatitis C virus, 48 h, read-out: EC50 in the 48 hour 1b replicon assay, 48 hour.

`Cn1nc(C(=O)NC2CCN(CCCC3CCCCC3)CC2)c2ccc(N3CCCCCC3)nc21` [compound 1031]: under setting [1], the half-maximal effective concentration (EC50) is 690 nM.

`COCC1CCCCN1CCN1CCC(NC(=O)c2nn(C)c3nc(N4CCCCCC4)ccc23)CC1` (centres unmarked) [compound 1426]: the EC50 under setting [1] is 450 nM.

`Cn1nc(-c2nnc(C3CCCN(CC(F)F)C3)o2)c2ccc(N3CCCCCCC3)nc21` (centres unmarked) [compound 1273]: the EC50 under setting [1] worked out at 4800 nM.

With `Cn1nc(NC(=O)[C@H]2CC[C@@H](N)CC2)c2ccc(N3CCCCCC3)nc21` [compound 844], the EC50 under setting [1] came to 6600 nM.

For the compound `CCN1CCC(NC(=O)c2nn(C)c3nc(NC4CCCCCCC4)ccc23)CC1` [compound 1474], the EC50 under setting [1] came out at 480 nM.

For `Cn1nc(NC(=O)c2ccccc2C(F)(F)F)c2ccc(N3CCCCCC3)nc21` [compound 836], under setting [1], the EC50 amounted to 4100 nM.

Consider `Cn1nc(C(=O)NC2CCNCC2)c2ccc(OC3CCCCC3)nc21` [compound 817], for which, under setting [1], the EC50 stood at 3400 nM.

With `Cc1ccc(CN2CCC(NC(=O)c3nn(C)c4nc(N5CCCCCCC5)ccc34)CC2)cc1` [compound 1224], the EC50 under setting [1] is 2700 nM.

Consider `Cn1nc(C(=O)NC2CCN(CC3CCCC3)CC2)c2ccc(N3CCCCCCC3)nc21` [compound 1305], for which the EC50 under setting [1] worked out at 490 nM.

In the case of `Cn1nc(C(=O)NC2CCCN(S(C)(=O)=O)C2)c2ccc(N3CCCCCC3)nc21` (centres unmarked) [compound 700], the concentration for a half-maximal effect (EC50) under setting [1] worked out at 3800 nM.

With `Cn1nc(C(=O)NCc2ccccc2)c2ccc(N3CCCCCC3)nc21` [compound 830], under setting [1], the EC50 stood at 7300 nM.

For the compound `CCCCCCNc1ccc2c(C(=O)NC3CCCNC3)nn(-c3cccc(Cl)c3C)c2n1` (centres unmarked) [compound 1378], the EC50 under setting [1] turned out to be 2600 nM.

For `Cn1nc(C(=O)NC2CCN(Cc3ccc(-c4ccccc4)cc3)CC2)c2ccc(O)nc21` [compound 972], under setting [1], the half-maximal effective concentration (EC50) is 3700 nM.

As to `Cn1nc(C(=O)NC2CCNCC2)c2ccc(NCc3ccccc3)nc21` [compound 1042], the EC50 under setting [1] is 3800 nM.

As to `CCC(CC)Oc1ccc2c(NC(=O)c3ccc(C)s3)nn(C)c2n1` [compound 956], the EC50 under setting [2] was 21000 nM.

For `Cn1nc(C(=O)NC2CCN(CCN3CCC[C@H]3CO)CC2)c2ccc(N3CCCCCC3)nc21` [compound 1561], the EC50 under setting [1] was 3800 nM.

As for `Cn1nc(C(=O)NC2CCN(Cc3ccncc3)CC2)c2ccc(N3CCCCCC3)nc21` [compound 1043], the EC50 under setting [1] was determined as 1200 nM.

For `Cn1nc(-c2cnc(C(=O)NC3CCCNC3)s2)c2ccc(N3CCCCCC3)nc21` (centres unmarked) [compound 1128], the EC50 under setting [1] is 490 nM.

With `Cn1nc(C(=O)NC2CCN(C3CCCCC3)CC2)c2ccc(N3CCCCCC3)nc21` [compound 1594], the EC50 under setting [1] worked out at 1800 nM.

As to `CCCN1CCC(NC(=O)c2nn(C)c3nc(N4CCCCCCC4)ccc23)CC1` [compound 1235], the 50% effective concentration (EC50) under setting [1] is 3400 nM.

For `Cn1nc(C(=O)NC2CCNCC2)c2ccc(OC3CCCCCC3)nc21` [compound 873], the EC50 under setting [1] was determined as 4700 nM.

For the compound `COCC1CCCN1CCCc1nn(C)c2nc(N3CCCCCCC3)ccc12` (centres unmarked) [compound 1453], under setting [1], the EC50 was 2800 nM.

With `CCC(CC)Oc1ccc2c(NC(=O)c3ccncc3)nn(C)c2n1` [compound 939], the EC50 under setting [1] is 4700 nM.

For `CCC(CC)Oc1ccc2c(C(=O)NC3CCNCC3)n[nH]c2n1` [EBP726], the concentration for a half-maximal effect (EC50) under setting [3] was less than 3000 nM.

Take `CC(C)c1ccc(CN(c2ccc3c(C(=O)NC4CCN(CCN5CCCCC5)CC4)nn(C)c3n2)C2CCCCCC2)cc1` [compound 1303]: the half-maximal effective concentration (EC50) under setting [1] came to 660 nM.

Turning to `CC(C)c1ccc(CN2CCC(NC(=O)c3nn(C)c4nc(N5CCCCCC5)ccc34)CC2)cc1` [compound 1046], the EC50 under setting [1] is 1400 nM.

In the case of `CCC(CC)Oc1ccc2c(COCC3CCNCC3)nn(Cc3ccc(Cl)cc3)c2n1` [EBP756], the 50% effective concentration (EC50) under setting [3] was less than 3000 nM.

On to `Cn1nc(C(=O)N[C@H]2CCNC2)c2ccc(N3CCCCCC3)nc21` [compound 822], for which the EC50 under setting [1] is 4300 nM.

Take `Cn1nc(NC(=O)c2cccnc2Cl)c2ccc(N3CCCCCC3)nc21` [compound 832]: the EC50 under setting [1] turned out to be 3300 nM.

For `Cn1nc(C(=O)NC2CCN(Cc3cccc(-c4ccccc4)c3)CC2)c2ccc(OCc3cccc(-c4ccccc4)c3)nc21` [compound 970], the EC50 under setting [1] was found to be 8900 nM.

Turning to `Cn1nc(-c2cnc(C(=O)NC3CCCN(CCN4CCCCC4)C3)s2)c2ccc(N3CCCCCCC3)nc21` (centres unmarked) [compound 1316], the EC50 under setting [1] came out at 550 nM.

As to `Cn1nc(C(=O)NC2CCNCC2)c2ccc(NC3CCCCC3)nc21` [compound 862], the EC50 under setting [1] came out at 2600 nM.

In the case of `CC(C)CN1CCC(NC(=O)c2nn(C)c3nc(N4CCCCCCC4)ccc23)CC1` [compound 1236], under setting [1], the concentration giving a half-maximal response (EC50) came to 6300 nM.

`CC(C)CNc1ccc2c(C(=O)NC3CCCNC3)nn(C)c2n1` (centres unmarked) [compound 684]: the concentration giving a half-maximal response (EC50) under setting [1] was found to be 10000 nM.

Take `Cn1nc(-c2cnc(C(=O)NCC3CCNCC3)s2)c2ccc(N3CCCCCC3)nc21` [compound 1097]: under setting [1], the EC50 came to 3400 nM.

In the case of `Cn1nc(C(=O)NC2CCN(Cc3ccc(-c4ccccc4)cc3)CC2)c2ccc(OCc3ccc(-c4ccccc4)cc3)nc21` [compound 973], the 50% effective concentration (EC50) under setting [1] turned out to be 5400 nM.

Turning to `Cn1nc(C(=O)NC2CCN(CCN3CCCC3)CC2)c2ccc(N3CCCCCCC3)nc21` [compound 1296], the concentration giving a half-maximal response (EC50) under setting [1] stood at 500 nM.

As for `Cn1nc(-c2cnc(C(=O)NCc3ccccc3)s2)c2ccc(N3CCCCCCC3)nc21` [compound 1250], the EC50 under setting [1] turned out to be 1400 nM.

`CCC(CC)n1nc(C(=O)NC2CCNCC2)c2ccc(N3CCCCCC3)nc21` [compound 859]: the 50% effective concentration (EC50) under setting [1] worked out at 2800 nM.

With `Cn1nc(C(=O)NC2CCN(CCC3CCCCC3)CC2)c2ccc(N3CCCCCCC3)nc21` [compound 1299], the concentration for a half-maximal effect (EC50) under setting [1] amounted to 310 nM.

Regarding `Cn1nc(NC(=O)c2ccncc2)c2ccc(N3CCCCCC3)nc21` [compound 839], the EC50 under setting [1] worked out at 2500 nM.

In the case of `C[C@@H]1CCC[C@H]1Oc1ccc2c(C(=O)NC3CCNCC3)nn(C)c2n1` [compound 945], the concentration giving a half-maximal response (EC50) under setting [1] is 2600 nM.

With `CC1CC(NC(=O)c2nn(C)c3nc(N4CCCCCCC4)ccc23)CCN1Cc1ccc(OC(F)F)cc1` (centres unmarked) [compound 1152], under setting [1], the concentration for a half-maximal effect (EC50) is 6100 nM.

On to `Clc1ccc(Cn2nc(CN3CCCC3)c3ccc(N4CCCCCC4)nc32)cc1` [compound 763], for which the EC50 under setting [1] was 8700 nM.

For `Cn1nc(NC(=O)c2ccncc2)c2ccc(N3CCCC3)nc21` [compound 788], under setting [1], the EC50 came out at 9500 nM.

In the case of `Cn1nc(C(=O)NC2CCN(CC3CCCCC3)CC2)c2ccc(N3CCCCCC3)nc21` [EBP987], the EC50 under setting [3] was less than 3000 nM.

As to `Cn1nc(C(=O)NC2CCNCC2)c2ccc(N3CCCC(c4ccccc4)CC3)nc21` (centres unmarked) [compound 1026], the EC50 under setting [1] was 1600 nM.

Consider `Cn1nc(CNC2CCNCC2)c2ccc(N3CCCCCC3)nc21` [compound 976], for which the EC50 under setting [1] is 4700 nM.

In the case of `CC1CCCCC1Oc1ccc2c(C(=O)NC3CCNCC3)nn(C)c2n1` (centres unmarked) [compound 878], under setting [1], the EC50 was determined as 2800 nM.

Consider `Cn1nc(C(=O)NC2CCN(CC(F)F)CC2)c2ccc(N3CCCCCCC3)nc21` [compound 1223], for which, under setting [1], the 50% effective concentration (EC50) amounted to 2800 nM.

As to `Cn1nc(C(=O)NC2CC3CCCC(C2)N3)c2ccc(N3CCCCCC3)nc21` (centres unmarked) [compound 831], under setting [2], the EC50 was found to be 2700 nM.

Regarding `Cn1nc(-c2ncc(-c3ccc(Br)cc3)[nH]2)c2ccc(N3CCCCCC3)nc21` [compound 1069], the EC50 under setting [1] was found to be 8300 nM.

Consider `CN(c1ccc2c(C(=O)NC3CCNCC3)nn(C)c2n1)C1CCCCC1` [compound 892], for which the EC50 under setting [1] came out at 1500 nM.

In the case of `Cn1nc(C(=O)NC2CCNCC2)c2ccc(Oc3ccccc3)nc21` [compound 955], the EC50 under setting [1] worked out at 3400 nM.

For `Cn1nc(CCCN2CC[C@H](O)C2)c2ccc(N3CCCCCCC3)nc21` [compound 1458], the half-maximal effective concentration (EC50) under setting [1] was found to be 3200 nM.

On to `Cn1nc(C(=O)N[C@H]2C[C@H]3CC[C@@H](C2)N3)c2ccc(N3CCCCCC3)nc21` [compound 984], for which, under setting [1], the EC50 came to 2200 nM.
